Measurements from publication PMC6001238, “Iterative Chemical Engineering of Vancomycin Leads to Novel Vancomycin Analogs With a High in Vitro Therapeutic Index” (Frontiers in Microbiology, 2018).
Values after ≈ are worked out from the molar mass of the structure shown. Read-outs that look alike come from different tables or passages of the source.

Experiments:
[1] = tested on: B. subtilis PSB3; assay: MIC, broth microdilution, B. subtilis PSB3; type: cell-based, Bacillus subtilis; details: for MICvanc/MICi: ratio of MIC of vancomycin and MIC of analogue
Description: (§1) The minimum inhibitory concentration (MIC) was determined using the broth microdilution method according to the antimicrobial susceptibility testing standards of the clinical and laboratory standards institute ([Clinical and Laboratory Standards Institute [CLSI], 2012]). Ultrapure water and non-inoculated broth were used as controls. In one case, a final concentration of 10 μM vancomycin was included with the vancomycin analog or control antibiotic.

[2] = tested on: E. coli XL-1 blue MRF'; assay: MIC, broth microdilution, E. coli XL-1 blue MRF'; type: cell-based, Escherichia coli; details: E. coli XL-1 blue MRF'; for MICvanc/MICi: ratio of MIC of vancomycin and MIC of analogue
Description: as §1

[3] = tested on: E. faecalis VSE 1; assay: MIC, broth microdilution, vancomycin-sensitive E. faecalis (VSE 1); type: cell-based, Enterococcus faecalis; details: for MICvanc/MICi / MIC-fold improvement vs. vancomycin: ratio of MIC of vancomycin and MIC of analogue; for MIC: read-out: MIC; for MIC-fold improvement vs. vancomycin: VSE 1
How it was run: (§2)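 Following CLSI antimicrobial susceptibility standards, organisms were tested by broth microdilution. Controls comprised ultrapure water plus broth left uninoculated. For a single condition, 10 μM vancomycin (final) accompanied the analog or control agent.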

[4] = tested on: E. faecalis VRE 6; assay: MIC, broth microdilution, vancomycin-resistant E. faecalis VRE 6 (VanA); type: cell-based, Enterococcus faecalis; details: for MIC: read-out: MIC
How it was run: as §2

[5] = tested on: E. faecalis VRE 53; assay: MIC, broth microdilution, vancomycin-resistant E. faecalis VRE 53 (VanA); type: cell-based, Enterococcus faecalis; details: for MICvanc/MICi / MIC-fold improvement vs. vancomycin: ratio of MIC of vancomycin and MIC of analogue; for MIC: read-out: MIC; for MIC-fold improvement vs. vancomycin: VRE 53
How it was run: as §2

[6] = tested on: E. faecalis VRE 29; assay: MIC, broth microdilution, vancomycin-resistant E. faecalis VRE 29 (VanA); type: cell-based, Enterococcus faecalis; details: for MIC: Enterococcus faecalis VRE 29 (vancomycin-resistant), read-out: MIC; for MIC-fold improvement vs. vancomycin: VRE 29, ratio of MIC of vancomycin and MIC of analogue
How it was run: as §2

[7] = tested on: E. faecalis VRE 37; assay: MIC, broth microdilution, vancomycin-resistant E. faecalis VRE 37 (VanA); type: cell-based, Enterococcus faecalis; details: for MIC: Enterococcus faecalis VRE 37 (vancomycin-resistant), read-out: MIC
How it was run: as §2

[8] = tested on: Murine leukemia (L1210) cells; assay: Cytostatic activity, L1210 cell proliferation; type: cell-based; details: mean ± SD of three experiments; highest concentration tested 250 µM; 2 days; read-out: Toxicity (IC50) L1210
How it was run: (§3)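 Suspensions (300,000–500,000 cells/mL) combined with equal volumes of diluted compound; 37°C; L1210 2 d / CEM 3 d / HeLa 4 d; counted by Coulter counter; IC50 vs untreated wells.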

[9] = tested on: human T-lymphocyte (CEM) cells; assay: Cytostatic activity, CEM cell proliferation; type: cell-based; details: mean ± SD of three experiments; highest concentration tested 250 µM; 3 days; read-out: Toxicity (IC50) CEM
How it was run: as §3

[10] = tested on: human cervix carcinoma (HeLa) cells; assay: Cytostatic activity, HeLa cell proliferation; type: cell-based; details: mean ± SD of three experiments; highest concentration tested 250 µM; 4 days; read-out: Toxicity (IC50) HeLa
How it was run: as §3

[11] = tested on: L1210, CEM and HeLa cell lines; assay: Cytostatic activity, average or summary over L1210, CEM and HeLa; type: cell-based; details: average of L1210, CEM and HeLa; read-out: Toxicity (IC50) Average
How it was run: as §3

[12] = tested on: S. aureus VSSA (ATCC 6538); assay: MIC, broth microdilution, vancomycin-sensitive S. aureus (VSSA/MSSA, ATCC 6538); type: cell-based, Staphylococcus aureus; details: for MIC: Staphylococcus aureus VSSA, read-out: MIC; for MIC-fold improvement vs. vancomycin: VSSA, ratio of MIC of vancomycin and MIC of analogue
How it was run: as §2

[13] = tested on: S. aureus VISA/HIP5827; assay: MIC, broth microdilution, vancomycin-intermediate S. aureus VISA HIP5827; type: cell-based, Staphylococcus aureus; details: for MIC: Staphylococcus aureus VISA/HIP5827, read-out: MIC; for MIC-fold improvement vs. vancomycin: VISA/HIP5827, ratio of MIC of vancomycin and MIC of analogue
How it was run: as §2

[14] = tested on: S. aureus VRSA; assay: MIC, broth microdilution, vancomycin-resistant S. aureus (VRSA); type: cell-based, Staphylococcus aureus; details: for MIC: Staphylococcus aureus VRSA, read-out: MIC; for MIC-fold improvement vs. vancomycin: VRSA, ratio of MIC of vancomycin and MIC of analogue
How it was run: as §2

[15] = tested on: MRSA KS2; assay: MIC, broth microdilution, MRSA KS2; type: cell-based, Staphylococcus aureus; details: for MIC-fold improvement vs. vancomycin: MRSA KS2, ratio of MIC of vancomycin and MIC of analogue; for MIC: Staphylococcus aureus MRSA KS2, read-out: MIC
How it was run: as §2

[16] = tested on: MRSA KS6; assay: MIC, broth microdilution, MRSA KS6; type: cell-based, Staphylococcus aureus; details: for MIC-fold improvement vs. vancomycin: MRSA KS6, ratio of MIC of vancomycin and MIC of analogue; for MIC: Staphylococcus aureus MRSA KS6, read-out: MIC
How it was run: as §2

[17] = tested on: MRSA KS89; assay: MIC, broth microdilution, MRSA KS89; type: cell-based, Staphylococcus aureus; details: for MIC-fold improvement vs. vancomycin: MRSA KS8, ratio of MIC of vancomycin and MIC of analogue; for MIC: Staphylococcus aureus MRSA KS8, read-out: MIC
How it was run: as §2

[18] = tested on: MRSA KS1; assay: MIC, broth microdilution, MRSA KS1; type: cell-based, Staphylococcus aureus; details: for MIC-fold improvement vs. vancomycin: MRSA KS1, ratio of MIC of vancomycin and MIC of analogue; for MIC: Staphylococcus aureus MRSA KS1, read-out: MIC
How it was run: as §2

[19] = Enterococcus faecalis VSE 1 (vancomycin-sensitive)
[20] = E. faecalis VRE 6, ratio of MIC of vancomycin and MIC of analogue
[21] = Enterococcus faecalis VRE 6 (vancomycin-resistant)
[22] = Enterococcus faecalis VRE 53 (vancomycin-resistant)

SMILES	MIC [1] [µM]	MICvanc/MICi [1]	MIC [2] [µM]	MICvanc/MICi [2]	MICvanc/MICi ([3]; E. faecalis VSE 1)	MIC ([3]; E. faecalis VSE 1) [µM]	MIC [3, 19] [µM]	MIC-fold improvement vs. vancomycin [3]	MICvanc/MICi [4, 20]	MIC ([4]; E. faecalis VRE 6) [µM]	MIC [4, 21] [µM]	MICvanc/MICi ([5]; E. faecalis VRE 53)	MIC ([5]; E. faecalis VRE 53) [µM]	MIC [5, 22] [µM]	MIC-fold improvement vs. vancomycin [5]	MIC [6] [µM]	MIC-fold improvement vs. vancomycin [6]	MIC [7] [µM]	IC50 [8] [µM]	IC50 [9] [µM]	further results
C#Cc1ccc(C=Cc2ccc(NC(=O)CNC(=O)C3NC(=O)C4NC(=O)C(NC(=O)C5NC(=O)C(CC(N)=O)NC(=O)C(NC(=O)C(CC(C)C)NC)C(O)c6ccc(c(Cl)c6)Oc6cc5cc(c6OC5OC(CO)C(O)C(O)C5OC5CC(C)(N)C(O)C(C)O5)Oc5ccc(cc5Cl)C4O)c4ccc(O)c(c4)-c4c(O)cc(O)cc43)cc2)cc1 (centres unmarked) [Vanc-R]	0.78 (≈ 1.33 µg/mL)	0.5	100 (≈ 171 µg/mL)	1	8	0.20 (≈ 0.342 µg/mL)	0.19 (≈ 0.324 µg/mL)	8	64	3.13 (≈ 5.34 µg/mL)	3.13 (≈ 5.34 µg/mL)	64	6.25 (≈ 10.7 µg/mL)	6.25 (≈ 10.7 µg/mL)	64	1.56 (≈ 2.66 µg/mL)	256	12.5 (≈ 21.3 µg/mL)	5.7 ± 0.7	1.4 ± 0.6	MIC-fold improvement vs. vancomycin ([7]; VRE 37, ratio of MIC of vancomycin and MIC of analogue): 64; IC50 [10]: 15 ± 1 µM; IC50 [11]: 7 µM; MIC [12]: 0.10 µM (≈ 0.171 µg/mL); MIC-fold improvement vs. vancomycin [12]: 8; MIC [13]: 0.78 µM (≈ 1.33 µg/mL); MIC-fold improvement vs. vancomycin [13]: 8; MIC [14]: 1.56 µM (≈ 2.66 µg/mL); MIC-fold improvement vs. vancomycin [14]: 64; MIC-fold improvement vs. vancomycin [15]: 2; MIC [15]: 0.39 µM (≈ 0.666 µg/mL); MIC-fold improvement vs. vancomycin [16]: 2; MIC [16]: 0.39 µM (≈ 0.666 µg/mL); MIC-fold improvement vs. vancomycin [17]: 2; MIC [17]: 0.39 µM (≈ 0.666 µg/mL); MIC-fold improvement vs. vancomycin [18]: 1; MIC [18]: 0.78 µM (≈ 1.33 µg/mL)
C#Cc1ccc(-c2ccc(C(=O)NCCCNC(=O)[C@H]3NC(=O)[C@H]4NC(=O)[C@H](NC(=O)[C@@H]5NC(=O)[C@H](CC(N)=O)NC(=O)[C@H](NC(=O)[C@@H](CC(C)C)NC)[C@H](O)c6ccc(c(Cl)c6)Oc6cc5cc(c6O[C@@H]5O[C@H](CO)[C@@H](O)[C@H](O)[C@H]5O[C@H]5C[C@](C)(N)[C@H](O)[C@H](C)O5)Oc5ccc(cc5Cl)[C@H]4O)c4ccc(O)c(c4)-c4c(O)cc(O)cc43)cc2)cc1 [Vanc-S]	0.20 (≈ 0.342 µg/mL)	2	50 (≈ 85.5 µg/mL)	2	64	0.03 (≈ 0.0513 µg/mL)	0.03 (≈ 0.0513 µg/mL)	64	256	0.78 (≈ 1.33 µg/mL)	0.78 (≈ 1.33 µg/mL)	128	3.13 (≈ 5.35 µg/mL)	3.13 (≈ 5.35 µg/mL)	128	6.25 (≈ 10.7 µg/mL)	64	25 (≈ 42.7 µg/mL)	10 ± 4	5.6 ± 1.1	MIC-fold improvement vs. vancomycin ([4]; VRE 6, ratio of MIC of vancomycin and MIC of analogue): 256; IC50 [10]: 70 ± 8 µM; IC50 [11]: 29 µM; MIC [12]: 0.10 µM (≈ 0.171 µg/mL); MIC-fold improvement vs. vancomycin [12]: 8; MIC [13]: 0.39 µM (≈ 0.667 µg/mL); MIC-fold improvement vs. vancomycin [13]: 16; MIC [14]: 0.78 µM (≈ 1.33 µg/mL); MIC-fold improvement vs. vancomycin [14]: 128; MIC-fold improvement vs. vancomycin [15]: 4; MIC [15]: 0.20 µM (≈ 0.342 µg/mL); MIC-fold improvement vs. vancomycin [16]: 2; MIC [16]: 0.39 µM (≈ 0.667 µg/mL); MIC-fold improvement vs. vancomycin [17]: 4; MIC [17]: 0.20 µM (≈ 0.342 µg/mL); MIC-fold improvement vs. vancomycin [18]: >8; MIC [18]: <0.10 µM
